Source: US20250163043A1 (TRANSTHERA SCIENCES (NANJING), INC., priority 2021, published 2025)

Columns and labels:
[1] = test system: MV-4-11 (human myelomonocytic leukemia cells); assay: CCK-8 cell proliferation assay, MV-4-11; assay type: cell-based; details: MV4-11, 24 h incubation, 11 concentrations from 5000 nM, 3-fold, read-out: MV-4-11 cell proliferation IC50 (class)
Experimental: (§1) Test samples: the compounds of the present invention, having structures shown above.
MV-4-11 (human myelomonocytic leukemia cells) and NCI-H929 (human myeloma cells).
The compounds were dissolved in DMSO and diluted 3-fold in the 96-well plate to obtain stock solutions with 11 concentration gradients. Each cell was inoculated into a 96-well plate, and the diluted compound stock solution was added to the 96-well plate to obtain a series of 11 concentration gradients of compound solutions with final concentrations of 5000 nM starting and 3-fold gradient decreasing, wherein the final DMSO content was […]. There was a medium containing 1‰ DMSO in the negative control well. The treated cells were incubated at 37° C. with 5% CO2 and 95% humidity, wherein MV-4-11 were incubated for 24 h and NCI-H929 for 72 h. After incubation was completed, each well was added with 10 μL of CCK-8 reagent, incubated for 1-3 h at room temperature and placed in the microplate reader, and the absorbance was read at 450 nm.
(§2) The inhibition rate was calculated according to the following formula: […]
ODcmpd: compound absorbance; ODpositive: average value of the absorbance of positive control without compound; ODvehicle: average value of the absorbance of solvent vehicle control.
(§3) IC50 values were fitted using GraphPad 7.0 based on inhibition rates of compounds at different concentrations.

CDK9/CycT1 = CDK9/CycT1 (Homo sapiens, UniProt P50750); assay: ADP-Glo kinase assay on CDK enzymatic activity, CDK9/CycT1; assay type: biochemical; details: 10 concentrations from 10 μM, 4-fold, 60 min room temperature
Procedure, shortened: (§4)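 Steps: compound (10 μM top, 4-fold series) plus kinase, 10 min RT; add substrate/ATP mix, 60 min RT; ADP-Glo reagent 40 min; detection reagent 40 min; read luminescence. Inhibition referenced to AZD4573 (1 μM) and DMSO vehicle; IC50 by nonlinear fit.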

CDK5/p25NCK = CDK5/p25NCK (Homo sapiens, UniProt Q00535); assay: ADP-Glo kinase assay on CDK enzymatic activity, CDK5/p25NCK; assay type: biochemical; details: 10 concentrations from 10 μM, 4-fold, 60 min room temperature
Text: as §1
(§5) ADP-Glo Kinase Assay (ADP-Glo kinase kit), DMSO (dimethyl sulfoxide), CDK9/CycT1 (cyclin-dependent kinase 9/cyclin T1), CDK tide (cyclin-dependent kinase substrate peptide fragments), CDK1/CycE1 (cyclin-dependent kinase 1/cyclin E1), CDK2/CycA2 (cyclin-dependent kinase 2/cyclin A2), CDK3/CycE1 (cyclin-dependent kinase 3/cyclin E1), CDK4/CycD3 (cyclin-dependent kinase 4/cyclin D3), CDK5/p25NCK (cyclin-dependent kinase 5/p25), and AZD 4573.
(§6) A 384-well white plate, a 96-well plate, a microplate oscillator, a centrifuge, and a microplate reader.
(§7) The compounds were dissolved in DMSO and diluted 4-fold in the 96-well plate to obtain stock solutions with 10 concentration gradients, and added into a 384-well plate system to obtain a series of 10 concentration gradients of compound solutions with final concentrations of 10 μM starting and 4-fold gradient decreasing. 1 μM AZD4573 was used as compound positive control (PC) and 0.5% DMSO as solvent vehicle control (VC), ten duplicated wells each for PC and VC.
(§8) 1 μL of compound solution and 2 μL of 2× kinase solution were transferred to each well, and the plate was centrifuged at 1000 g for 30 s and left at room temperature for 10 min. A mixture of 2× substrate and ATP was prepared in 1× kinase buffer. The reaction was started after adding 2 μL of substrate and ATP into the plate. The plate was centrifuged at 1000 g for 30 s. The assay plate was closed and left at room temperature for 60 min. The reaction system was added with 4 μL of ADP Glo reagent, centrifuged at 1000 rpm for 1 min, and incubated at room temperature for 40 min. The reaction system was added with 8 μL of kinase assay reagent, centrifuged at 1000 rpm for 1 min and incubated at room temperature for 40 min. The […] was read on Biotek.
as §2
(§9) Lumcmpd: compound fluorescence reading; Lumpositive: average value of the fluorescence reading of positive compound control; Lumvehicle: average value of the fluorescence reading of solvent vehicle control.
as §3

CDK3/CycE1 = CDK3/CycE1 (Homo sapiens, UniProt Q00526); assay: ADP-Glo kinase assay on CDK enzymatic activity, CDK3/CycE1; assay type: biochemical; details: 10 concentrations from 10 μM, 4-fold, 60 min room temperature
Text: as §1, §5, §6, §7, §8, §2, §9, §3

CDK1/CycE1 = CDK1/CycE1 (Homo sapiens, UniProt P06493); assay: ADP-Glo kinase assay on CDK enzymatic activity, CDK1/CycE1; assay type: biochemical; details: ADP-Glo; 10 concentrations from 10 μM, 4-fold; 60 min room temperature; read-out: CDK1/CycE1/nM (IC50)
Procedure, shortened: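 Compounds in 10-point 4-fold dilutions from 10 μM final, preincubated 10 min with kinase, then substrate/ATP added; 60 min reaction at room temperature. ADP-Glo luminescence read.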

CDK2/CycA2 = CDK2/CycA2 (Homo sapiens, UniProt P24941); assay: ADP-Glo kinase assay on CDK enzymatic activity, CDK2/CycA2; assay type: biochemical; details: 10 concentrations from 10 μM, 4-fold, 60 min room temperature
Procedure, shortened: as §4

Sequence of CDK9/CycT1 (P50750 whole entry): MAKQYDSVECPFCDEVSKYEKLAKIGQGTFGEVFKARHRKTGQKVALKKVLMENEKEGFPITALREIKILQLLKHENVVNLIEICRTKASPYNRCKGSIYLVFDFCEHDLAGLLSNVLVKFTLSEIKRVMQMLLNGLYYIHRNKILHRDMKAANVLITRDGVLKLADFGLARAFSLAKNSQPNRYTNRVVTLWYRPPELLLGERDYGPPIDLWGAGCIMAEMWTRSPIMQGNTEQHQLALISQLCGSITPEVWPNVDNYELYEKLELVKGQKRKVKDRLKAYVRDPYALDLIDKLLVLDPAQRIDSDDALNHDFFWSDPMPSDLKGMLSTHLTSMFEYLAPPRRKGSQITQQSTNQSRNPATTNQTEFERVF
Sequence of CDK9/CycT1 (O60563 whole entry partner): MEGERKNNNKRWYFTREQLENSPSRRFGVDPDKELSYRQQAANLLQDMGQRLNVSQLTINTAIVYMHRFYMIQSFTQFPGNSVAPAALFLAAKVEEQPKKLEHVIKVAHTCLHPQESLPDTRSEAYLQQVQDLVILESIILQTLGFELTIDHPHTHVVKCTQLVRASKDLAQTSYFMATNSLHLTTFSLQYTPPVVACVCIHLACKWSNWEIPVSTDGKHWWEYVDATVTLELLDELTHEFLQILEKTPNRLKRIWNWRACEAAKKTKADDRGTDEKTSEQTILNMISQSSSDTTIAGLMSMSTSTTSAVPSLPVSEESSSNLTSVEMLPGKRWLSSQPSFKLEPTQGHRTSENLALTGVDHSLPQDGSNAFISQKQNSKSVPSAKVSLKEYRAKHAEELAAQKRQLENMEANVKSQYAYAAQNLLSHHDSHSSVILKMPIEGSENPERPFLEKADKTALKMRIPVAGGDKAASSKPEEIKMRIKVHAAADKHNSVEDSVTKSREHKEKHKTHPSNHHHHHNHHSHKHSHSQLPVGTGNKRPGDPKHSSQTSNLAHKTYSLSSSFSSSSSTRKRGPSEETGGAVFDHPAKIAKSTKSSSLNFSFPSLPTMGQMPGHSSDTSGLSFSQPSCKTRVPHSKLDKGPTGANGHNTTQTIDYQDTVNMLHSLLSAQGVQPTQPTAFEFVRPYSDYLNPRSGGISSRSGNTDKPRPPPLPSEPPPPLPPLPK
Sequence of CDK3/CycE1 (Q00526 whole entry, species assumed): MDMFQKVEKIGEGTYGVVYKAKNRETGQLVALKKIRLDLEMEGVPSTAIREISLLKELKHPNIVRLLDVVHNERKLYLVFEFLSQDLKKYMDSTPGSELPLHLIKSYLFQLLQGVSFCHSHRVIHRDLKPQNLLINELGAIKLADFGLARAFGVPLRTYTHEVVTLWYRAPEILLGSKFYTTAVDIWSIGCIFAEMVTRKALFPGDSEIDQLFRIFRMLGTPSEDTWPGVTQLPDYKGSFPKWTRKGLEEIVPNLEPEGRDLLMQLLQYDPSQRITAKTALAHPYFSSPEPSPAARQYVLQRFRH
Sequence of CDK3/CycE1 (P24864 whole entry partner, species assumed): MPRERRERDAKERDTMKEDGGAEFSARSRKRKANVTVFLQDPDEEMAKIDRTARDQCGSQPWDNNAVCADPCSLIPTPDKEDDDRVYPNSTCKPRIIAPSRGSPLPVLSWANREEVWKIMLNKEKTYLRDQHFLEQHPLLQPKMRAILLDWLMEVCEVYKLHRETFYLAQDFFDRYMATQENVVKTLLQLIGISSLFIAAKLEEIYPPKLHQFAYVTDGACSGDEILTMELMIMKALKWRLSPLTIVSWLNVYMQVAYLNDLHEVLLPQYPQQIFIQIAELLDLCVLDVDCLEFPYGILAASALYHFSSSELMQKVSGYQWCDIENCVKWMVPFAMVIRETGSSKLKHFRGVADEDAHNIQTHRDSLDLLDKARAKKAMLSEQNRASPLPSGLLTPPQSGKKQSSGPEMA
Sequence of CDK1/CycE1 (P06493 whole entry, species assumed): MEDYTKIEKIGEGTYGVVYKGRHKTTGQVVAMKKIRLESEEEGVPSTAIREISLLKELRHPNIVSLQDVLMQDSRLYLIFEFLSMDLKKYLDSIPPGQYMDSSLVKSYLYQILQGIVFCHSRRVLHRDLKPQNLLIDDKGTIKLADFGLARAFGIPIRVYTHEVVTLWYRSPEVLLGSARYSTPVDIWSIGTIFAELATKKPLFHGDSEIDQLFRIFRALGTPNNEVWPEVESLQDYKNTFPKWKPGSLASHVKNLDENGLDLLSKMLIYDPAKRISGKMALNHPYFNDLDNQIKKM
Sequence of CDK1/CycE1 (P24864 whole entry partner, species assumed): as the sequence (P24864 whole entry partner, species assumed) above
Sequence of CDK5/p25NCK (Q00535 whole entry, species assumed): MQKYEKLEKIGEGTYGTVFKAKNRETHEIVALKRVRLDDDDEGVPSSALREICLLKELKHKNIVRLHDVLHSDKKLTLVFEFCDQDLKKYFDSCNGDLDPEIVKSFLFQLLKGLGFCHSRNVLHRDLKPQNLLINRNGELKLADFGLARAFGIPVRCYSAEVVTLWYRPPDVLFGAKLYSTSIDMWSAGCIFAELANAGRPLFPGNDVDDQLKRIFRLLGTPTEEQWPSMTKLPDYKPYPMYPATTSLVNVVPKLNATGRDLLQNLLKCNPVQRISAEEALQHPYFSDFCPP
Sequence of CDK5/p25NCK (Q15078 99-307 partner limits assumed, species assumed): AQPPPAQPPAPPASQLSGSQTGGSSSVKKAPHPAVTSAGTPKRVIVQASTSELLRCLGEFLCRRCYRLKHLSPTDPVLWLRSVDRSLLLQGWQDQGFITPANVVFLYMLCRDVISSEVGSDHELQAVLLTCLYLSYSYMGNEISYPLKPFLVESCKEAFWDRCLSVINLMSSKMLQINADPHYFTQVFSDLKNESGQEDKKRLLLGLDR

| SMILES | IC50 [1] [nM] | IC50 (CDK9/CycT1) [nM] | IC50 (CDK5/p25NCK) [nM] | IC50 (CDK3/CycE1) [nM] | IC50 (CDK1/CycE1) [nM] | IC50 (CDK2/CycA2) [nM] |
| --- | --- | --- | --- | --- | --- | --- |
| CC(=O)N[C@@H]1CCC[C@H](C(=O)Nc2ncc3cc(C#N)nc(NC(C)C)c3n2)C1 [Compound 3, (1S,3R)-3-acetamido-N-(6-cyano-8-(isopropylamino)pyrido[3,4-d]pyrimidin-2-yl)cyclohexane-1-carboxamide] | > 1000 | – | – | – | – | – |
| CC(=O)N[C@@H]1CCC[C@H](C(=O)Nc2ncc3cc(S(C)(=O)=O)nc(NC(C)C)c3n2)C1 [Compound 5, (1S,3R)-3-acetamido-N-(8-(isopropylamino)-6-(methylsulfonyl)pyrido[3,4-d]pyrimidin-2-yl)cyclohexane-1-carboxamide] | > 1000 | – | – | – | – | – |
| N#Cc1cc2cnc(N[C@H]3CCCNC3)cc2c(NC2CCC2)n1 [Compound 144, (S)-1-(cyclobutylamino)-7-(piperidin-3-ylamino)-2,6-naphthyridine-3-carbonitrile] | – | 2 | 195 | 28 | 90 | 146 |
| CC1(Nc2nc(C#N)cc3cnc(N[C@H]4CCCNC4)cc23)CC1 [Compound 148, (S)-1-((1-methylcyclopropyl)amino)-7-(piperidin-3-ylamino)-2,6-naphthyridine-3-carbonitrile] | – | 1 | 165 | 49 | 104 | 171 |
| CC(C)(C)Nc1nc(C#N)cc2cnc(N[C@H]3CCCNC3)cc12 [Compound 149, (S)-1-(tert-butylamino)-7-(piperidin-3-ylamino)-2,6-naphthyridine-3-carbonitrile] | – | 1 | 295 | 60 | 42 | 126 |
| N#Cc1cc2cnc(N[C@H]3CCCNC3)cc2c(N[C@@H]2CCOC2)n1 [Compound 150, 7-(((S)-piperidin-3-yl)amino)-1-(((R)-tetrahydrofuran-3-yl)amino)-2,6-naphthyridine-3-carbonitrile] | – | 2 | 1460 | 281 | 608 | 450 |
| N#Cc1cc2cnc(N[C@H]3CCCNC3)cc2c(N[C@H]2CCOC2)n1 [Compound 151, 7-(((S)-piperidin-3-yl)amino)-1-(((S)-tetrahydrofuran-3-yl)amino)-2,6-naphthyridine-3-carbonitrile] | – | 8 | 4140 | 832 | 411 | 1290 |
| CC(C)(C)Oc1nc(C#N)cc2cnc(N[C@H]3CCCNC3)cc12 [Compound 152, (S)-1-(tert-butoxy)-7-(piperidin-3-ylamino)-2,6-naphthyridine-3-carbonitrile] | – | 2 | 1000 | 124 | 110 | 267 |
| CC(C)Oc1nc(C#N)cc2cnc(N[C@H]3CCCNC3)cc12 [Compound 153, (S)-1-(isopropoxy)-7-(piperidin-3-ylamino)-2,6-naphthyridine-3-carbonitrile] | – | 2 | 706 | 67 | 133 | 562 |
| N#Cc1cc2cnc(N[C@H]3CCCNC3)cc2c(O[C@@H]2CCOC2)n1 [Compound 154, 7-(((S)-piperidin-3-yl)amino)-1-(((R)-tetrahydrofuran-3-yl)oxy)-2,6-naphthyridine-3-carbonitrile] | – | 5 | 3840 | 371 | 1020 | 2320 |
| N#Cc1cc2cnc(N[C@H]3CCCNC3)cc2c(NC2CC2)n1 [Compound 175, (S)-1-(cyclopropylamino)-7-(piperidin-3-ylamino)-2,6-naphthyridine-3-carbonitrile] | – | 3 | 435 | 1480 | 234 | 489 |
| CCNc1nc(C#N)cc2cnc(N[C@H]3C[C@H](N)C3)cc12 [Compound 184, 7-(((trans)-3-aminocyclobutyl)amino)-1-(ethylamino)-2,6-naphthyridine-3-carbonitrile] | – | 1 | 96 | 990 | 163 | 125 |
| CCNc1nc(C#N)cc2cnc(N[C@H]3CCCNC3)cc12 [Compound 186, (S)-1-(ethylamino)-7-(piperidin-3-ylamino)-2,6-naphthyridine-3-carbonitrile] | – | 3 | 176 | 915 | 336 | 352 |
| CCOc1nc(C(F)F)cc2cnc(N[C@H]3C[C@H](N)C3)cc12 [Compound 200, (trans)-N^1-(7-(difluoromethyl)-5-ethoxy-2,6-naphthyridin-3-yl)cyclobutane-1,3-diamine] | – | 2 | 263 | 1100 | 149 | 244 |
| FC(F)c1cc2cnc(N[C@H]3CCCNC3)cc2c(N[C@@H]2CCOC2)n1 [Compound 201, 3-(difluoromethyl)-N7—((S)-piperidin-3-yl)-N^1—((R)-tetrahydrofuran-3-yl)-2,6-naphthyridine-1,7-diamine] | – | 2 | 53 | 189 | 215 | 83 |
| FC(F)c1cc2cnc(N[C@H]3CCCNC3)cc2c(O[C@@H]2CCOC2)n1 [Compound 202, 7-(difluoromethyl)-N—((S)-piperidin-3-yl)-5-(((R)-tetrahydrofuran-3-yl)oxy)-2,6-naphthyridin-3-amine] | – | 4 | 168 | 398 | 521 | 337 |
| CC1(Oc2nc(C#N)cc3cnc(N[C@H]4CCCNC4)cc23)CC1 [Compound 204, (S)-1-(1-methylcyclopropoxy)-7-(piperidin-3-amino)-2,6-naphthyridine-3-carbonitrile] | – | 2 | 523 | 1410 | 903 | 1010 |
| CC(C)(C)Nc1nc(C(F)F)cc2cnc(N[C@H]3CCCNC3)nc12 [Compound C1] | – | 2 | 17 | 7 | 7 | 21 |
| CC(C)(C)Nc1nc(C(F)F)cc2cnc(NC3CCNCC3)nc12 [Compound C2, N^8-(tert-butyl)-6-(difluoromethyl)-N^2-(piperidin-4-yl)pyrido[3,4-d]pyrimidine-2,8-diamine] | – | 4 | 465 | 53 | 48 | 48 |
| CC(C)Nc1nc(C#N)cc2cnc(N[C@@H]3CN4CCC3CC4)nc12 [Compound C45, (S)-8-(isopropylamino)-2-(quinuclidin-3-ylamino)pyrido[3,4-d]pyrimidine-6-carbonitrile] | – | 6 | 7980 | 340 | 467 | 1310 |
| CC(C)Nc1nc(C(F)(F)F)cc2cnc(N[C@H]3CCCNC3)nc12 [Compound C46, (S)—N^8-isopropyl-N^2-(piperidin-3-yl)-6-(trifluoromethyl)pyrido[3,4-d]pyrimidine-2,8-diamine] | – | 2 | 60 | 8 | 19 | 33 |
